Reference: patent US4032654A, “Water-soluble, liquid concentrates of S-methyl-[(methyl-carbamoyl)oxy]-thioacetimidate and methyl N', N'-dimethyl-N-[(methyl-carbamoyl)oxy]-1-thiooxamimidate” (priority 1975, dated 1977)
≈ marks a conversion by molar mass, not a printed value. Where “and” joins values, the source holds several entries; their conditions need not be identical. Equal entries are not always repeated. Where two headings read alike, the source gives them in different places.

Tests used:
physchem [1] = settings: for solubility: Oxamyl alone in solvent
Description: Methomyl and oxamyl were added to various methanol:water solvent systems ranging from 100% CH3 OH to 40% CH3 OH:60% H2 O. The methomyl and oxamyl were dissolved separately or combined on a 1:1 weight ratio in the solvent systems at room temperature at a concentration exceeding the solubility limit at -6° C. Each sample was seeded with methomyl and/or oxamyl at -6° C. and allowed to crystallize until equilibrium was established. The supernatant liquid of each sample was assayed for methomyl and/or oxamyl by liquid chromatography.

physchem [2] = settings: for solubility: Oxamyl alone in solvent; remark: listed apart in the source
Description: Solubility of Methomyl and Oxamyl (2:1 wt. ratio) in CH3 OH/H2 O at -6° C.
(§1) Methomyl and oxamyl were added to various methanol:water solvent systems ranging from 100 wt. % CH3 OH to 30 wt. % CH3 OH:70 wt. % H2 O. The methomyl and oxamyl were dissolved in a 2:1 weight ratio of 50 wt. % methomyl to 25 wt. % oxamyl in the solvent systems. The samples were equilibrated at -6° C. in a constant temperature freezer after which they were seeded with methomyl and oxamyl crystals to ensure crystallization of both materials. After crystal-liquid equilibrium was assured, liquid was removed at -6° C. and assayed for methomyl and oxamyl. Solids were also removed at -6° C., washed with hexane and dried. The solids were then dissolved in methanol to yield a 10 wt. % solution. This solution was evaluated by thin layer chromatography (TLC) to ensure the solids consisted of both methomyl and oxamyl.

physchem [3] = settings: for solubility: Oxamyl alone in solvent; remark: listed apart in the source
Description: as §1, with “The methomyl and oxamyl were dissolved in a 2:1 weight ratio of 50 wt. % methomyl to 25 wt. % oxamyl in the solvent systems.” left out
Solubility of Methomyl and Oxamyl 1:2.5 wt. ratio in CH3 OH:H2 O at -6° C.
Example 3 was repeated by dissolving methomyl and oxamyl in a 1:2.5 weight ratio in the same solvent systems under the same conditions.

[4] = Description: Methomyl and/or oxamyl were added to a solvent system consisting of 60% cyclohexanone, 10% methanol and 30% water at room temperature at a concentration higher than the solubility limit at -6° C. The methomyl and oxamyl were added together, at weight ratios of 2:1, 1:1 and 1:2.5. The solutions were cooled to -6° C. and seeded with methomyl and/or oxamyl to initiate crystallization. The solutions remained at -6° C. until equilibrium was assured. The supernatant liquid in each sample was analyzed for methomyl and oxamyl by liquid chromatography.
[5] = remark: listed apart in the source
Description: Methomyl and Oxamyl Solubility In Cyclohexanone, Cyclohexanol, CH3 OH and H2 O at -6° C.
Methomyl and oxamyl were dissolved separately and in weight ratios of 1:1, 2:1 and 1:2.5 methomyl to oxamyl in a solvent system consisting of 30 wt. % cyclohexanone, 30 wt. % cyclohexanol, 30 wt. % water and 10 wt. % methanol. These solutions were equilibrated at -6° C. and seeded with methomyl and/or oxamyl crystals. The samples of liquid and solids remained at -6° C. until solid-liquid equilibrium was assured. A liquid sample was removed from each at -6° C. and assayed for methomyl and/or oxamyl. Solids were also isolated at -6° C., washed, dried and dissolved in CH3 OH to yield a 10% solution which was analyzed by TLC to ensure both methomyl and oxamyl crystals were present in the solids of the combination sample. All such solids contained both oxamyl and methomyl.
SOLUBILITY OF METHOMYL AND OXAMYL (2:1, 1:1 and 1:2.5 Wt.
RATIOS) IN CYCLOHEXANONE, CYCLOHEXANOL, CH3 OH AND H2 O

[6] = remark: listed apart in the source
Description: Solubility of Methomyl and Oxamyl 80:20 Wt. Ratio Acetone:H2 O
Methomyl and oxamyl were dissolved in a solvent system consisting of 80 wt. % acetone and 20 wt. % water separately and in 1:1, 2:1 and 1:2.5 wt. ratios of methomyl and oxamyl. These solutions were equilibrated at -6° C. and were seeded with methomyl and/or oxamyl. They remained at -6° C. until solid-liquid equilibrium was assured. Liquid was removed from each sample at -6° C. and assayed for methomyl and oxamyl. Solids were also removed at -6° C., washed, dried and dissolved in methanol to yield a 10 wt. % solution which was evaluated by TLC for oxamyl and methomyl.

## CNC(=O)ON=C(SC)C(=O)N(C)C [Oxamyl, methyl N',N'-dimethyl-N-[(methylcarbamoyl)oxy]-1-thiooxamimidate]
Physchem [1]
  Solubility, both actives in solvent: Oxamyl: 80 gms/100 gms
Physchem [1]; 40/60 ch3oh/h2o, alone, -6° C.
  solubility: 209 mg/mL (≈ 953 mM)
Physchem [1]; 50/50 ch3oh/h2o, alone, -6° C.
  solubility: 290 mg/mL (≈ 1320 mM)
Physchem [1]; 60/40 ch3oh/h2o, alone, -6° C.
  solubility: 397 mg/mL (≈ 1810 mM)
Physchem [1]; 70/30 ch3oh/h2o, alone, -6° C.
  solubility: 422 mg/mL (≈ 1920 mM)
Physchem [1]; 80/20 ch3oh/h2o, alone, -6° C.
  solubility: 447 mg/mL (≈ 2040 mM)
Physchem [1]; 90/10 ch3oh/h2o, alone, -6° C.
  solubility: 406 mg/mL (≈ 1850 mM)
Physchem [1]; alone, 100/0 CH3OH/H2O, -6° C.
  Solubility, Oxamyl alone in solvent: 33.3 gms/100 gms
Physchem [1]; summary of Examples 2-7
  Solubility when dissolved together in the solvents taught: increases in solubility occur
Physchem [2]
  Solubility, both actives in solvent: Oxamyl: 113 gms/100 gms
Physchem [2]; 40/60 ch3oh/h2o, alone, -6° C.
  solubility: 209 mg/mL (≈ 953 mM)
Physchem [2]; 50/50 ch3oh/h2o, alone, -6° C.
  solubility: 290 mg/mL (≈ 1320 mM)
Physchem [2]; 60/40 ch3oh/h2o, alone, -6° C.
  solubility: 397 mg/mL (≈ 1810 mM)
Physchem [2]; 70/30 ch3oh/h2o, alone, -6° C.
  solubility: 422 mg/mL (≈ 1920 mM)
Physchem [2]; 80/20 ch3oh/h2o, alone, -6° C.
  solubility: 447 mg/mL (≈ 2040 mM)
Physchem [2]; 90/10 ch3oh/h2o, alone, -6° C.
  solubility: 406 mg/mL (≈ 1850 mM)
Physchem [2]; alone, 100/0 CH3OH/H2O, -6° C.
  Solubility, Oxamyl alone in solvent: 33.3 gms/100 gms
Physchem [2]; methanol:water solvent systems, 2:1 wt. ratio dissolved initially, -6° C.
  Solubility change when dissolved in combination: increased
Physchem [3]
  Solubility, both actives in solvent: Oxamyl: 72.3 gms/100 gms
Physchem [3]; 40/60 ch3oh/h2o, alone, -6° C.
  solubility: 209 mg/mL (≈ 953 mM)
Physchem [3]; 50/50 ch3oh/h2o, alone, -6° C.
  solubility: 291 mg/mL (≈ 1330 mM)
Physchem [3]; 60/40 ch3oh/h2o, alone, -6° C.
  solubility: 396 mg/mL (≈ 1810 mM)
Physchem [3]; 70/30 ch3oh/h2o, alone, -6° C.
  solubility: 423 mg/mL (≈ 1930 mM)
Physchem [3]; 80/20 ch3oh/h2o, alone, -6° C.
  solubility: 448 mg/mL (≈ 2040 mM)
Physchem [3]; 90/10 ch3oh/h2o, alone, -6° C.
  solubility: 404 mg/mL (≈ 1840 mM)
Physchem [3]; alone, 100/0 CH3OH/H2O, -6° C.
  Solubility, Oxamyl alone in solvent: 33.3 gms/100 gms
[4]
  Solubility, both actives in solvent: Oxamyl: 84.8 gms/100 gms solvent and 80.1 gms/100 gms solvent and 82.7 gms/100 gms solvent
[4]; alone, 60% cyclohexanone, 10% methanol, 30% water, -6° C.
  Solubility, Oxamyl alone in solvent: 48.4 gms/100 gms solvent
[5]
  Solubility, both actives in solvent: Oxamyl: 83.0 gms/100 gms solvent and 63.7 gms/100 gms solvent and 61.8 gms/100 gms solvent
[5]; alone, 30% cyclohexanone, 30% cyclohexanol, 30% water, 10% methanol, -6° C.
  Solubility, Oxamyl alone in solvent: 41.5 gms/100 gms solvent
[6]
  Solubility, both actives in solvent: Oxamyl: 84.6 gms/100 gms solvent and 79.3 gms/100 gms solvent and 82.8 gms/100 gms solvent
[6]; alone, 80:20 wt acetone/H2O, -6° C.
  Solubility, Oxamyl alone in solvent: 52.0 gms/100 gms solvent
